From patent US20110280940A1, “Di-Vanilloyl And Tri-Vanilloyl Derivatives For Use In Anti-Cancer Therapy” (priority 2008, published 2011)

Assays:
VM21 melanoma cells = assay: MTT colorimetric assay, overall cell growth, VM21; assay type: cell-based, human; conditions: Homo sapiens; MTT, 72 hours of incubation; read-out: In Vitro IC50 Growth Inhibitory Values, VM21
How it was run: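 Growth is measured as remaining living cells relative to untreated controls after 72 h at 37 °C with compound at 10^-8 to 10^-4 M. Readout is MTT formazan absorbance at 570 nm.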

VM48 melanoma cells = assay: MTT colorimetric assay, overall cell growth, VM48; assay type: cell-based, human; conditions: Homo sapiens; MTT, 72 hours of incubation; read-out: In Vitro IC50 Growth Inhibitory Values, VM48
U373-MG glioma cell line = assay: Cellular imaging (quantitative videomicroscopy), global growth ratio, U373; assay type: cell-based; conditions: Homo sapiens, 50 μM, 72 h, read-out: Global Grow Ratio Treated/Ct (GGR T/Ct) determined by Video Quantitative microscopy, U373
Source text: (§1) As the MTT test is based on the mitochondria functions, we also investigated the effects of the di- and tri-vanilloyl derivatives according to the invention on cell proliferation, migration and morphology by means of a cellular imaging approach (Debeir et al., Cytometry 60:29-40, 2004; Debeir et al., IEEE Trans Med Imaging 24:697-711, 2005) either in the human U373-MG glioma cell line, which is apoptosis-resistant but autophagy-sensitive (Lefranc F et al., Neurosurgery 2008) and in the human A549 non-small-cell-lung cancer cell line, which is apoptosis-resistant and autophagy-resistant (Mijatovic T et al., Neoplasia 2006, May; 8(5):402-12).
(§2) Investigations have also been performed in human normal fibroblasts (WS1 and WI38—see Tables 4 and 5). Cellular imaging relied on the use of computer-assisted phase-contrast microscopy making possible to film the behaviour of living cells in culture dishes for several days.
(§3) Cells were seeded in a 25-cm^2 flask at a low density, treated or not with the vanilloyl-esters invention (at a concentration of 50 μM) and filmed thereafter for a period of 72 h. The experiment was conducted in quadruplicates (in duplicates for DLT-95 compounds).
(§4) The behaviour of the cells, in terms of morphology, growth and death were thus investigated. The effect on the overall growth was measured by counting the number of cells on the first (0 h) and the last image (72 h) of each film. The global growth ratio (GGR) was then deduced by dividing the number of cells on the last image by the number of cells on the first image. The ratio GGRtreated cells/GGRcontrol cells, was further calculated thereby obtaining a value that describes the effect of compounds of the present invention on the overall cell growth. The methodology is fully described and validated in Debeir et al., 2008, Exp Cell Res 314:2985-2998 and Mathieu et al., 2009, J Cell Mol Med, Feb. 20, 2009.
(§5) Illustrative pictures (time=0 h and 72 h) of glioblastoma and normal fibroblast cell line left untreated or treated with poly-vanillic compounds according to the invention (50 μM) are provided in FIG. 1 (U373 glioblastoma) and FIG. 2 (normal fibroblasts). The GGR parameter analyses confirmed the marked impairment of cell growth in both cancer cell lines of the poly-vanillic compounds according to the invention (Table 5).

[1] = test system: A549 non-small-cell-lung cancer cell line; assay: Cellular imaging (quantitative videomicroscopy), global growth ratio, A549; assay type: cell-based; conditions: Homo sapiens, 72 h, read-out: Global Grow Ratio Treated/Ct (GGR T/Ct) determined by Video Quantitative microscopy, A549
Source text: as §1, §2, §3, §4, §5

CDK5/p25 = target: T1, CDK5/p25 (Homo sapiens, UniProt Q00535); assay: Kinase activity assay, CDK5; assay type: biochemical; conditions: 10 μM, 1% DMSO, 15 μM ATP; residual activity
T1 construct: made in house
T1 sequence (Q00535 whole entry): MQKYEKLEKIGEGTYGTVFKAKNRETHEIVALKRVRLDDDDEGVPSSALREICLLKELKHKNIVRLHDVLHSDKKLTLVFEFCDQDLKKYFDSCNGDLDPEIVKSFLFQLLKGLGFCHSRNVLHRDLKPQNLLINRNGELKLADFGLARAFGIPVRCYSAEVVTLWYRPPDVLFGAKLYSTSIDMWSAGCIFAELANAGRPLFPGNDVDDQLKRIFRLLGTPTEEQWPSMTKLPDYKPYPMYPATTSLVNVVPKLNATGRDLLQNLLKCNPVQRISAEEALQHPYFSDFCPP
T1 sequence (Q15078 99-307 partner limits assumed): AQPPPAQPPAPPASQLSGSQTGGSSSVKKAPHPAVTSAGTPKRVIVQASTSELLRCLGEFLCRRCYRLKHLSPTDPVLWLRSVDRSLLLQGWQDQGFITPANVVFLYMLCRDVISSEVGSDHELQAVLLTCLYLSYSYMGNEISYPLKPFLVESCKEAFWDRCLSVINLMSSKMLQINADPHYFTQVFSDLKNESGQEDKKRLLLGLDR
Protocol: (§6) Buffer A: 10 mM MgCl2, 1 mM EGTA, 1 mM DTT, 25 mM Tris-HCl pH 7.5, 50 μg heparin/ml. Buffer C: 60 mM β-glycerophosphate, 15 mM p-nitrophenylphosphate, 25 mM Mops (pH 7.2), 5 mM EGTA, 15 mM MgCl2, 1 mM DTT, 1 mM sodium vanadate, 1 mM phenyl phosphate.
(§7) Kinase activities were assayed in Buffer A or C, at 30° C., at a final ATP concentration of 15 μM. Blank values were subtracted and activities expressed in % of the maximal activity, i.e. in the absence of inhibitors. Controls were performed with appropriate dilutions of DMSO.
(§8) CDK1/cyclin B (M phase starfish oocytes, native), CDK2/cyclin A, CDK2/cyclin E, CDK5/p25 and CDK7/cyclin H (human, recombinant) were prepared as previously described (Leclerc et al., 2001, J. Biol. Chem. 2001, 276, 251-260; Bach et al., 2005, J Biol Chem 280: 31208-31219). Their kinase activity was assayed in buffer C, with 1 mg histone H1/ml, in the presence of 15 μM [gamma-^33P] ATP (3,000 Ci/mmol; 10 mCi/ml) in a final volume of 30 μl. After 30 min incubation at 30° C., 25 μl aliquots of supernatant were spotted onto 2.5×3 cm pieces of Whatman P81 phosphocellulose paper, and, 20 sec later, the filters were washed five times (for at least 5 min each time) in a solution of 10 ml phosphoric acid/liter of water. The wet filters were counted in the presence of 1 ml ACS (Amersham) scintillation fluid.

GSK-3 = assay: Kinase activity assay, GSK3; assay type: biochemical, porcine; conditions: 10 μM, 1% DMSO, 15 μM ATP; residual activity
Protocol: as §6, §7
GSK-3 (porcine brain, native) was assayed, as described for CDK1 but in Buffer A and using a GSK-3 specific substrate (GS-1: […]pEDEEE) (Seq. ID NO 1) (pS stands for phosphorylated serine) (Primot et al., 2000, Protein Expr. & Purif. 20 (3), 394-404). GS-1 was synthesized by Millegen (Labege, France).

pfGSK3 = pfGSK3 (Plasmodium falciparum, UniProt O77344); assay: Kinase activity assay, pfGSK3; assay type: biochemical; conditions: 10 μM, 1% DMSO, 15 μM ATP; residual activity
pfGSK3, sequence (O77344 1-440): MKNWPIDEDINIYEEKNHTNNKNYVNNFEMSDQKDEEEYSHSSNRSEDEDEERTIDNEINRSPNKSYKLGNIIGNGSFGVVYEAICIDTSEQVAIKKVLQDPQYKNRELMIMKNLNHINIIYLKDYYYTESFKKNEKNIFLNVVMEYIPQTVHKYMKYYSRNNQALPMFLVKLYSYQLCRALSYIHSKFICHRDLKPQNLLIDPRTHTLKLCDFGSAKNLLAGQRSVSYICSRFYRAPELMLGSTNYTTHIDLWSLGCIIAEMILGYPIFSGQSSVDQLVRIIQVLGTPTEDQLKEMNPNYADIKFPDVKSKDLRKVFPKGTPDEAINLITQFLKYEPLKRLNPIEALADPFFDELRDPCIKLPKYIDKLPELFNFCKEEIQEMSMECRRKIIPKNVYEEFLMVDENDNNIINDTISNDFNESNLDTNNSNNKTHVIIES
Protocol: as §6, §7

CK1 = assay: Kinase activity assay, CK1; assay type: biochemical, porcine; conditions: 10 μM, 1% DMSO, 15 μM ATP; residual activity
Protocol: as §6, §7
CK1 (porcine brain, native) was assayed as described for CDK1 but using the CK1-specific peptide substrate […]pSAYSITA (Seq. ID NO 2) (Reinhardt et al., 2007, Protein Expr. & Purif. 54, 101-109), obtained from Millegen (Labege, France).

DYRK1A = DYRK1A (Rattus norvegicus, UniProt Q63470); assay: Kinase activity assay, DYRK1A (GST fusion, myelin basic protein substrate); assay type: biochemical
Protocol: as §6, §7
DYRK1A (rat, recombinant, expressed in E. coli as a GST fusion protein) was purified by affinity chromatography on glutathione-agarose and assayed as described for CDK1/cyclin B using myelin basic protein (1 mg/ml) as a substrate.

Erk2 = Erk2 (Rattus norvegicus, UniProt P63086); assay: Kinase activity assay, Erk2; assay type: biochemical; conditions: 10 μM, 1% DMSO, 15 μM ATP; residual activity
Erk2, sequence (P63086 whole entry): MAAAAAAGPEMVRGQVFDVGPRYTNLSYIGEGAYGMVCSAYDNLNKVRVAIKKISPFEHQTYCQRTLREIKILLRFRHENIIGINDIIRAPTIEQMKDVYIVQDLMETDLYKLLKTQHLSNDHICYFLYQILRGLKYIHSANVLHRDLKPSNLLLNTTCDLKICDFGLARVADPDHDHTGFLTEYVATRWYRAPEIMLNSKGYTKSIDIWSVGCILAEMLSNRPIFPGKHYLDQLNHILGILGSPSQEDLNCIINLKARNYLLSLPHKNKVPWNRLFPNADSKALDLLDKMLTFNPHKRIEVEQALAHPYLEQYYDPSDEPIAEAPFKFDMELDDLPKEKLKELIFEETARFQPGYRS
Protocol: as §6, §7
Erk2 (rat, recombinant) was assayed as described for CDK1 but using the specific substrate Ets1 (amino acids 1-138) in buffer A.

CDK2/cyclin A = target: T2, CDK2/cyclin A (Homo sapiens, UniProt P24941); assay: Kinase activity assay, CDK2A; assay type: biochemical; conditions: 10 μM, 1% DMSO, 15 μM ATP; residual activity
T2 construct: made in house
Protocol: as §6, §7, §8

WI38 normal fibroblasts = assay: Cellular imaging (quantitative videomicroscopy), global growth ratio, WI38; assay type: cell-based, human; conditions: 50 μM, 72 h
Source text: as §1
(§9) Investigations have also been performed in human normal fibroblasts (WS1 and WI38—see Tables 4 and 5). Cellular imaging relied on the use of computer-assisted phase-contrast microscopy making possible to film the behaviour of living cells in culture dishes for several days. […]
(§10) The behaviour of the cells, in terms of morphology, growth and death were thus investigated. The effect on the overall growth was measured by counting the number of cells on the first (0 h) and the last image (72 h) of each film. […] The ratio GGRtreated cells/GGRcontrol cells, was further calculated thereby obtaining a value that describes the effect of compounds of the present invention on the overall cell growth. […]

WS1 normal fibroblasts = assay: Cellular imaging (quantitative videomicroscopy), global growth ratio, WS1; assay type: cell-based, human; conditions: 50 μM, 72 h
Source text: as §1, §9, §10

cancer cell lines = assay: Flow cytometry analyses of pro-autophagic and pro-apoptotic effects; assay type: cell-based, human; conditions: cancer cell lines studied
Source text: (§11) The compounds of the invention were subsequently evaluated for their 1) anti-proliferative effect (by means of the colorimetric MTT assay), 2) pro-autophagic and pro-apoptotic effect (by means of flow cytometry analyses), and 3) anti-migratory effect (by means of quantitative videomicroscopy), in the following human cancer cell-lines: a) U373, T98G and Hs683 glioblastoma cells, b) VM21 and VM48 melanoma cells, c) PC-3 prostate cancer cells, d) MCF-7 breast cancer cells, e) LoVo colon cancer cells, f) OE21 oesophageal cancer cells, and g) A549 NSCLC cancer cells, as well as in human WS1 and WI38 normal fibroblasts (i.e. non-cancer cells).

[2] = test system: cancer cells versus normal fibroblasts; assay: Anti-proliferative, anti-migratory and anti-kinase effects, cancer cells versus normal fibroblasts; assay type: cell-based, human; conditions: anti-proliferative
Source text: as §11
The best current hits, DLT12 and DLT4, display anti-proliferative, anti-migratory effects and anti-kinase effects which are ˜10 times more pronounced in cancer cells than in normal fibroblasts. […] FIG. 1 illustrates the data obtained with respect to the human U373 glioblastoma model, while FIG. 2 illustrates the data obtained in human normal fibroblasts. […] DLT-95 and its derivatives DLT-95-F and DLT-95-Cl were also shown to have a significant effect on the proliferation 7 different human cancer cell-lines.

| Structure (SMILES) | IC50 (VM21 melanoma cells) | IC50 (VM48 melanoma cells) | activity at 50 µM (U373-MG glioma cell line) | activity at 50 µM [1] | % ENZYMATIC ACTIVITY, CDK5 (CDK5/p25) | % ENZYMATIC ACTIVITY, GSK3 (GSK-3) | % ENZYMATIC ACTIVITY, pfGSK3 (pfGSK3) | % ENZYMATIC ACTIVITY, Ckone (CK1) | inhibition at 10 µM (DYRK1A) | % ENZYMATIC ACTIVITY, Dyrk1A (DYRK1A; 10 μM, 1% DMSO, 15 μM ATP, residual activity) | % ENZYMATIC ACTIVITY, Erk2 (Erk2) | % ENZYMATIC ACTIVITY, CDK2A (CDK2/cyclin A) | Global Grow Ratio Treated/Ct (GGR T/Ct) determined by Video Quantitative microscopy, WI38 (WI38 normal fibroblasts) | Global Grow Ratio Treated/Ct (GGR T/Ct) determined by Video Quantitative microscopy, WS1 (WS1 normal fibroblasts) | pro-autophagic or pro-apoptotic effects (cancer cell lines) | effects more pronounced in cancer cells than in normal fibroblasts [2] |
| --- | --- | --- | --- | --- | --- | --- | --- | --- | --- | --- | --- | --- | --- | --- | --- | --- |
| COc1cc(C(=O)OC2CCCC(OC(=O)c3ccc(O)c(OC)c3)C2)ccc1O (mixture of isomers) [DLT5, cis/trans-cyclohexane-1,3-diyl bis-(4-hydroxy-3-methoxybenzoate)] | 47 µM | 47 µM | 20% | 10% | 95% | 81% | 89% | 73% | 26% | 74% | 92% | 100% |  |  |  |  |
| COc1cc(C(=O)O[C@@H]2CCCC[C@H]2OC(=O)c2ccc(O)c(OC)c2)ccc1O (racemic) [DLT4, trans-cyclohexane-1,2-diyl bis-(4-hydroxy-3-methoxybenzoate)] |  |  | 20% | 20% |  |  |  |  |  |  |  |  | 0.9 | 1.0 | does not induce pro-autophagic or pro-apoptotic effects | ~10 times |
